Measurements taken from US8758816B2, “Compositions comprising azelastine and methods of use thereof” (priority 2004, dated 2014).

Test system: patients with seasonal allergic rhinitis (SAR)
Assay: MP 428 study: individual symptom severity scores (runny nose, itchy nose, sneezing, congestion; 0-3 scale)
Format: in vivo, human
Details: Intent-to-Treat Population
Method: A two-week, randomized, double-blind study, which evaluated the effects of the co-administration of ASTELIN® (azelastine hydrochloride (HCl)) and FLONASE® (fluticasone propionate) compared to either product alone in patients with seasonal allergic rhinitis (SAR) was conducted during the 2006 Texas mountain cedar season. After a 5-day placebo lead-in period, 151 patients with moderate-to-severe allergic rhinitis symptoms were randomized to either: (1) (49 total patients) ASTELIN® (azelastine hydrochloride (HCl)) plus placebo saline nasal spray 2 sprays per nostril, 15 minutes apart, twice daily (AM & PM); (2) (50 total patients) FLONASE® (fluticasone propionate) plus placebo saline nasal spray, 2 sprays per nostril, 15 minutes apart, once daily (AM) and two sessions of placebo saline nasal spray, 2 sprays per nostril, 15 minutes apart (PM); or (3) (52 total patients) the co-administration of ASTELIN® (azelastine hydrochloride (HCl)) 2 sprays per nostril plus FLONASE® (fluticasone propionate) 2 sprays per nostril (AM), 15 minutes apart, and ASTELIN® (azelastine hydrochloride (HCl)) 2 sprays per nostril plus placebo saline nasal spray, 15 minutes apart, (PM) for a 2-week double-blind treatment period.
The primary efficacy variable was the change from baseline in the Total Nasal Symptom Score (TNSS), which comprised sneezing, itchy nose, runny nose, and nasal congestion (individual symptoms scores were assigned a value between 0 and 3, where 0=no symptoms and 3=severe symptoms). This study was not statistically designed to assess the differences between ASTELIN® and FLONASE®.
The results of the clinical trial are summarized and presented in Appendix A hereinbelow and in FIGS. 1-6. […] FIGS. 2-5 show the mean improvement in severity score (0-3 scale) from baseline for the symptoms of runny nose, itchy nose, sneezing and congestion, respectively.

CCC(=O)O[C@]1(C(=O)SCF)[C@H](C)C[C@H]2[C@@H]3C[C@H](F)C4=CC(=O)C=C[C@]4(C)[C@@]3(F)[C@@H](O)C[C@@]21C [Fluticasone, fluticasone propionate]
Change from Baseline in AM and PM Combined Nasal Symptom Score: Congestion, LS Mean (Day 2): −0.59 | Change from Baseline in AM and PM Combined Nasal Symptom Score: Congestion, Mean (Day 2): −0.65 | Change from Baseline in AM and PM Combined Nasal Symptom Score: Congestion, Median (Day 2): −0.30 | Change from Baseline in AM and PM Combined Nasal Symptom Score: Itchy Nose, LS Mean (Day 2): −0.61 | Change from Baseline in AM and PM Combined Nasal Symptom Score: Itchy Nose, Mean (Day 2): −0.66 | Change from Baseline in AM and PM Combined Nasal Symptom Score: Itchy Nose, Median (Day 2): −0.40 | Change from Baseline in AM and PM Combined Nasal Symptom Score: Runny Nose, LS Mean (Day 2): −0.86 | Change from Baseline in AM and PM Combined Nasal Symptom Score: Runny Nose, Mean (Day 2): −0.90 | Change from Baseline in AM and PM Combined Nasal Symptom Score: Runny Nose, Median (Day 2): −1.00 | Change from Baseline in AM and PM Combined Nasal Symptom Score: Sneezing, LS Mean (Day 2): −1.06 | Change from Baseline in AM and PM Combined Nasal Symptom Score: Sneezing, Mean (Day 2): −1.03 | Change from Baseline in AM and PM Combined Nasal Symptom Score: Sneezing, Median (Day 2): −1.00 | Percent Change from Baseline in AM and PM Combined Nasal Symptom Score: Congestion, LS Mean (Day 2): −10.84% | Percent Change from Baseline in AM and PM Combined Nasal Symptom Score: Congestion, Mean (Day 2): −11.97% | Percent Change from Baseline in AM and PM Combined Nasal Symptom Score: Congestion, Median (Day 2): −5.66% | Percent Change from Baseline in AM and PM Combined Nasal Symptom Score: Itchy Nose, LS Mean (Day 2): −12.72% | Percent Change from Baseline in AM and PM Combined Nasal Symptom Score: Itchy Nose, Mean (Day 2): −14.27% | Percent Change from Baseline in AM and PM Combined Nasal Symptom Score: Itchy Nose, Median (Day 2): −8.39% | Percent Change from Baseline in AM and PM Combined Nasal Symptom Score: Runny Nose, LS Mean (Day 2): −12.11% | Percent Change from Baseline in AM and PM Combined Nasal Symptom Score: Runny Nose, Mean (Day 2): −12.95% | Percent Change from Baseline in AM and PM Combined Nasal Symptom Score: Runny Nose, Median (Day 2): −16.67% | Percent Change from Baseline in AM and PM Combined Nasal Symptom Score: Sneezing, LS Mean (Day 2): −22.64% | Percent Change from Baseline in AM and PM Combined Nasal Symptom Score: Sneezing, Mean (Day 2): −22.69% | Percent Change from Baseline in AM and PM Combined Nasal Symptom Score: Sneezing, Median (Day 2): −16.67% | Change from Baseline in AM and PM Combined Nasal Symptom Score: Congestion, LS Mean (Day 3): −0.81 | Change from Baseline in AM and PM Combined Nasal Symptom Score: Congestion, Mean (Day 3): −0.90 | Change from Baseline in AM and PM Combined Nasal Symptom Score: Congestion, Median (Day 3): −0.67 | Change from Baseline in AM and PM Combined Nasal Symptom Score: Itchy Nose, LS Mean (Day 3): −0.99 | Change from Baseline in AM and PM Combined Nasal Symptom Score: Itchy Nose, Mean (Day 3): −0.97 | Change from Baseline in AM and PM Combined Nasal Symptom Score: Itchy Nose, Median (Day 3): −0.67 | Change from Baseline in AM and PM Combined Nasal Symptom Score: Runny Nose, LS Mean (Day 3): −0.96 | Change from Baseline in AM and PM Combined Nasal Symptom Score: Runny Nose, Mean (Day 3): −1.05 | Change from Baseline in AM and PM Combined Nasal Symptom Score: Runny Nose, Median (Day 3): −0.80 | Change from Baseline in AM and PM Combined Nasal Symptom Score: Sneezing, LS Mean (Day 3): −1.29 | Change from Baseline in AM and PM Combined Nasal Symptom Score: Sneezing, Mean (Day 3): −1.21 | Change from Baseline in AM and PM Combined Nasal Symptom Score: Sneezing, Median (Day 3): −1.00 | Percent Change from Baseline in AM and PM Combined Nasal Symptom Score: Congestion, LS Mean (Day 3): −15.34% | Percent Change from Baseline in AM and PM Combined Nasal Symptom Score: Congestion, Mean (Day 3): −16.63% | Percent Change from Baseline in AM and PM Combined Nasal Symptom Score: Congestion, Median (Day 3): −11.76% | Percent Change from Baseline in AM and PM Combined Nasal Symptom Score: Itchy Nose, LS Mean (Day 3): −22.88% | Percent Change from Baseline in AM and PM Combined Nasal Symptom Score: Itchy Nose, Mean (Day 3): −22.41% | Percent Change from Baseline in AM and PM Combined Nasal Symptom Score: Itchy Nose, Median (Day 3): −15.32% | Percent Change from Baseline in AM and PM Combined Nasal Symptom Score: Runny Nose, LS Mean (Day 3): −17.15% | Percent Change from Baseline in AM and PM Combined Nasal Symptom Score: Runny Nose, Mean (Day 3): −18.81% | Percent Change from Baseline in AM and PM Combined Nasal Symptom Score: Runny Nose, Median (Day 3): −13.79% | Percent Change from Baseline in AM and PM Combined Nasal Symptom Score: Sneezing, LS Mean (Day 3): −29.62% | Percent Change from Baseline in AM and PM Combined Nasal Symptom Score: Sneezing, Mean (Day 3): −28.44% | Percent Change from Baseline in AM and PM Combined Nasal Symptom Score: Sneezing, Median (Day 3): −30.09% | Change from Baseline in AM and PM Combined Nasal Symptom Score: Congestion, LS Mean (Day 4): −1.00 | Change from Baseline in AM and PM Combined Nasal Symptom Score: Congestion, Mean (Day 4): −1.06 | Change from Baseline in AM and PM Combined Nasal Symptom Score: Congestion, Median (Day 4): −1.00 | Change from Baseline in AM and PM Combined Nasal Symptom Score: Itchy Nose, LS Mean (Day 4): −0.98 | Change from Baseline in AM and PM Combined Nasal Symptom Score: Itchy Nose, Mean (Day 4): −0.97 | Change from Baseline in AM and PM Combined Nasal Symptom Score: Itchy Nose, Median (Day 4): −0.90 | Change from Baseline in AM and PM Combined Nasal Symptom Score: Runny Nose, LS Mean (Day 4): −1.12 | Change from Baseline in AM and PM Combined Nasal Symptom Score: Runny Nose, Mean (Day 4): −1.17 | Change from Baseline in AM and PM Combined Nasal Symptom Score: Runny Nose, Median (Day 4): −1.15 | Change from Baseline in AM and PM Combined Nasal Symptom Score: Sneezing, LS Mean (Day 4): −1.42 | Change from Baseline in AM and PM Combined Nasal Symptom Score: Sneezing, Mean (Day 4): −1.33 | Change from Baseline in AM and PM Combined Nasal Symptom Score: Sneezing, Median (Day 4): −1.10 | Percent Change from Baseline in AM and PM Combined Nasal Symptom Score: Congestion, LS Mean (Day 4): −18.75% | Percent Change from Baseline in AM and PM Combined Nasal Symptom Score: Congestion, Mean (Day 4): −19.51% | Percent Change from Baseline in AM and PM Combined Nasal Symptom Score: Congestion, Median (Day 4): −16.67% | Percent Change from Baseline in AM and PM Combined Nasal Symptom Score: Itchy Nose, LS Mean (Day 4): −20.59% | Percent Change from Baseline in AM and PM Combined Nasal Symptom Score: Itchy Nose, Mean (Day 4): −20.31% | Percent Change from Baseline in AM and PM Combined Nasal Symptom Score: Itchy Nose, Median (Day 4): −16.67% | Percent Change from Baseline in AM and PM Combined Nasal Symptom Score: Runny Nose, LS Mean (Day 4): −17.17% | Percent Change from Baseline in AM and PM Combined Nasal Symptom Score: Runny Nose, Mean (Day 4): −18.21% | Percent Change from Baseline in AM and PM Combined Nasal Symptom Score: Runny Nose, Median (Day 4): −22.33% | Percent Change from Baseline in AM and PM Combined Nasal Symptom Score: Sneezing, LS Mean (Day 4): −31.80% | Percent Change from Baseline in AM and PM Combined Nasal Symptom Score: Sneezing, Mean (Day 4): −30.67% | Percent Change from Baseline in AM and PM Combined Nasal Symptom Score: Sneezing, Median (Day 4): −27.36% | Change from Baseline in AM and PM Combined Nasal Symptom Score: Congestion, LS Mean (Day 5): −1.00 | Change from Baseline in AM and PM Combined Nasal Symptom Score: Congestion, Mean (Day 5): −1.06 | Change from Baseline in AM and PM Combined Nasal Symptom Score: Congestion, Median (Day 5): −0.83 | Change from Baseline in AM and PM Combined Nasal Symptom Score: Itchy Nose, LS Mean (Day 5): −1.16 | Change from Baseline in AM and PM Combined Nasal Symptom Score: Itchy Nose, Mean (Day 5): −1.15 | Change from Baseline in AM and PM Combined Nasal Symptom Score: Itchy Nose, Median (Day 5): −1.00 | Change from Baseline in AM and PM Combined Nasal Symptom Score: Runny Nose, LS Mean (Day 5): −1.42 | Change from Baseline in AM and PM Combined Nasal Symptom Score: Runny Nose, Mean (Day 5): −1.43 | Change from Baseline in AM and PM Combined Nasal Symptom Score: Runny Nose, Median (Day 5): −1.05 | Change from Baseline in AM and PM Combined Nasal Symptom Score: Sneezing, LS Mean (Day 5): −1.61 | Change from Baseline in AM and PM Combined Nasal Symptom Score: Sneezing, Mean (Day 5): −1.52 | Change from Baseline in AM and PM Combined Nasal Symptom Score: Sneezing, Median (Day 5): −1.33
